The target in experiment [1] is T1, Klenow fragment not having exonuclease activity (KF exo−) (Escherichia coli, UniProt P00582, D355A/E357A).
T1 construct: a Klenow fragment not having exonuclease activity; purchased Amersham USB
It is filed as biochemical. The settings on record: for Km / Vmax: 37° C., SD in parentheses. The method, then:
An experiment of single-base incorporation by a Klenow fragment was performed with reference to documents (Kimoto, M., Yokoyama, S., Hirao, I., Biotechnol. Lett., 2004, 26, 999-1005; Petruska, J., Goodman, M. F., Boosalis, M. S., Sowers, L. C., Cheong, C., Tinoco, I., Proc. Natl. Acad. Sci. USA, 1988, 85, 6252-6256; Goodman, M. F., Creighton, S., Bloom, L. B., Petruska, J., Crit. Rev. Biochem. Mol. Biol., 1993, 28, 83-126; Morales, J. C., Kool, E. T., Nat. Struct. Biol., 1998, 5, 950-954).
Specifically, a primer (20-mer, 5′-[…]-3′ (SEQ ID NO: 4) or 5′-[…]-3′ (SEQ ID NO: 5)) labeled with 6-carboxyfluorescein at the 5′ end and a template DNA (35-mer, 5′-AGCTCTDss[…]-3′ (SEQ ID NO: 6) or 5′-[…]-3′ (N=Pn, A, G, C, or T) (SEQ ID NO: 7)) were heated in a 100 mM Tris-HCl buffer (pH 7.5) containing 20 mM MgCl2, 2 mM DTT, and 100 μg/mL bovine serum albumin (BSA) at 95° C. and were then gradually cooled to 4° C. for annealing to form a double strand of the template and the primer.
An enzyme solution (2 μL) of a Klenow fragment not having exonuclease activity (KF exo−, Amersham USB) was added to 5 μL of each primer-template double-stranded DNA solution (10 μM). The mixture was incubated at 37° C. for 2 minutes to form a DNA/enzyme complex. To this solution, 3 μL of each substrate solution, i.e., nucleoside triphosphate solution (Dss, Pn, or one of A, G, C, and T, 1 μM to 5 mM) was added, followed by an enzyme reaction at 37° C. (for 1 to 35 minutes). The reaction was terminated by adding 10 μL of a 20 mM EDTA solution in 95% formamide (stop solution) to the reaction solution and heating the solution at 75° C. for 3 minutes.
The reaction conditions are summarized as follows. For each solution (10 μL), 5 μM primer-template double strand, 5 to 50 nM enzyme, and 0.3 to 1500 μM substrate are used. The solution (10 μL) contains 50 mM Tris-HCl (pH 7.5), 10 mM MgCl2, 1 mM DTT, and 0.05 mg/mL BSA. The reaction is performed at 37° C. for 1 to 35 minutes.
A part of the reaction solution was diluted with the stop solution, and 0.5 μL of the diluted reaction solution was mixed with 3 μL of a loading solution (deionized formamide: 50 mg/mL blue dextran solution containing 25 mM EDTA=5:1). The solution mixture was heated at 90° C. for 2 minutes and then was rapidly cooled on ice. About 0.5 μL of the solution was loaded on every other lane of a sequencing gel for electrophoresis. The sequencing gel (36 cm WTR) was composed of 6 M urea, 10% polyacrylamide (acrylamide:bisacrylamide=19:1), and 0.5×TBE. The buffer used for the electrophoresis was 0.5×TBE. The Run Module was GS Run 36C-2400. The time for electrophoresis was about 1 hour, and the peak patterns of the reaction products were analyzed and quantitatively measured by an automated ABI377 DNA sequencer equipped with GeneScan software (version 3.0).
The proportion of the primer extended by one nucleotide was determined from the peak area of the unreacted primer fragment and the peak area of the DNA fragment extended by single-base incorporation, and enzymatic parameters Vmax and KM were calculated by Hanes-Woolf plot (Goodman, M. F., Creighton, S., Bloom, L. B., Petruska, J., Crit. Rev. Biochem. Mol. Biol., 1993, 28, 83-126). The Vmax value was standardized to 20 nM enzyme concentration and 5 μM double strand concentration for various enzyme and double-strand concentrations used.

The nature of experiment [2]: Fluorescence intensity of fluorescent molecule (Cy3) linked to Px base having a quenching activity. In kind it is physicochemical. The settings on record: free substrate.
The mark [3] stands for this setting: template N = T, primer 5′-ACTCACTATAGGGAGCTTCT
Where [4] appears, read: template N = Dss, primer 5′-[…].
Setting [5] is: template N = A, primer 5′-ACTCACTATAGGGAGGAAGA

Like-named read-outs stand apart in the source and are kept apart here.

T1 sequence (P00582 324-928 D355A/E357A): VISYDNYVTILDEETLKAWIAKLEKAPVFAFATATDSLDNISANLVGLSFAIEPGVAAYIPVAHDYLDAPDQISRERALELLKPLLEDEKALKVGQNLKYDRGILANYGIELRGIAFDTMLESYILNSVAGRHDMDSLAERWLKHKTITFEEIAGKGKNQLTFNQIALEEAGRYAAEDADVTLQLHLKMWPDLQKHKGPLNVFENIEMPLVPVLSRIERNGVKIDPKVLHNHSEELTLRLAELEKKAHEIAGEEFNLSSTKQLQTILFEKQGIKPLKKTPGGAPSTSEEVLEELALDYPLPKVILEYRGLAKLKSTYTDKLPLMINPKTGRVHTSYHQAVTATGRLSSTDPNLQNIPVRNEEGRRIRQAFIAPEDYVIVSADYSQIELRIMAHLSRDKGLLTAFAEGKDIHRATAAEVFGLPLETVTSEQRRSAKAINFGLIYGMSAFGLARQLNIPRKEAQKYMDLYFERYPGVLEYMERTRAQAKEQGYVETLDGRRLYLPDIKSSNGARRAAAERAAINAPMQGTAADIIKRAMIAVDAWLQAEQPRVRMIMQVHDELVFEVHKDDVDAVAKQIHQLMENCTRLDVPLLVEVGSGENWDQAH

On to `Nc1ncnc2c1ncn2[C@H]1C[C@H](O)[C@@H](COP(=O)(O)OP(=O)(O)OP(=O)(O)O)O1` [dATP, deoxyriboadenosine triphosphate], for which, in experiment [1] (setting [3]), the “Efficiency (Vmax/KM)” value is 4.0 × 10^6 % min^−1 M^−1, the Km worked out at 0.81 µM and the Vmax is reported as 3.3 (1.8) % min^−1.

Turning to “1-(2-deoxy-β-D-ribofuranosyl-4-[3-(Cy3-carboxamide hexanamide)-1-propynyl]-2-nitropyrrole 5′-triphosphate [Cy3-hx-dPxTP]”, the “fluorescence intensity of fluorescent molecule quenched when linked to Px base” value in experiment [2] is given as “about 30%”.

As for `O=[N+]([O-])c1cccn1[C@H]1C[C@H](O)[C@@H](COP(=O)(O)OP(=O)(O)OP(=O)(O)O)O1` [dPnTP], in experiment [1] (setting [4]), the “Efficiency (Vmax/KM)” value is on record as 1.1 × 10^5 % min^−1 M^−1, the Km turned out to be 100 µM and the Vmax is listed as 11 (3) % min^−1.

With deoxyribothymidine triphosphate [dTTP], in experiment [1] (setting [5]), the “Efficiency (Vmax/KM)” value is given as 4.0 × 10^6 % min^−1 M^−1, the Km is 0.7 µM and the Vmax was 2.8 (1.5) % min^−1.

Source of the values: US9285319B2, “Nucleic acid base analogs with quenching and fluorescent activities and applications thereof” (RIKEN, priority 2010, dated 2016).
